Patent US7326697B2, “Methods for increasing the therapeutic response to electroconvulsive therapy” (Corcept Therapeutics, Inc., priority 2002, dated 2008)

Tests used:
[1] = Case: mental illness treated with mifepristone therapy followed by bilateral ECT; type: in vivo; details: one patient
Experimental: The patient subsequently underwent four treatments of bilateral ECT while continuing mifepristone therapy. […] During each treatment session, the patient received between 60 and 100 mg of methohexital and between 60 and 80 mg of succinylcholine.
For the first ECT treatment, the patient was delivered a stimulus using the Thymatron ECT device at 35% with […] eeg seizure duration and 115 second motor duration. After the first treatment, the patient was better able to organize their thoughts and was able to engage in more appropriate conversations. The second treatment was also at 35%, but the eeg duration decreased to 61 seconds and no motor seizure was detected. Consequently on the third treatment, the energy setting was increased to 40% with 115 second eeg duration and 91 second motor duration. After the third treatment, the patient had fewer somatic delusions, was able to comprehend written text and was easier to engage in conversation.

[2] = in one study; cited from earlier work

Structure (SMILES): CC#C[C@]1(O)CC[C@H]2[C@@H]3CCC4=CC(=O)CCC4=C3[C@@H](c3ccc(N(C)C)cc3)C[C@@]21C [mifepristone, (11β, 17β)-11-[4-(dimethylamino)phenyl]-17-hydroxy-17-(1-propynyl)estra-4,9-dien-3-one]
- clinical response to ECT while continuing mifepristone therapy ([1]; after four treatments of bilateral ECT, before the fifth): dramatically improved
- clinical response to mifepristone therapy alone ([1]; before ECT): not significantly improving
- side-effects of ECT with continued mifepristone therapy ([1]; four treatments of bilateral ECT): some impairment in short term memory but otherwise had no side-effects
- fraction of the daily dose excreted in the urine [2]: less than 0.5%
